Legend:
[1] = target: T1, Sodium-dependent noradrenaline transporter (Homo sapiens, UniProt P23975); assay: Inhibition of [3H]NE uptake
[2] = target: Monoamine transporters; Norepinephrine & dopamine (Homo sapiens) (UniProt Q01959+P23975); assay: Ratio for uptake of NE over DA; format: protein assay
[3] = target: T2, Monoamine transporters; serotonin & dopamine (Homo sapiens) (UniProt P31645+Q01959); assay: Ratio for uptake of 5HT over DA; format: protein assay
[4] = Selectivity for NET over DAT; format: protein assay; conditions: Homo sapiens
[5] = target: T3, Sodium-dependent dopamine transporter (Homo sapiens, UniProt Q01959); assay: Displacement of [125I]RTI-55 from DAT
[6] = target: T3, Sodium-dependent dopamine transporter; assay: Inhibition of [3H]DA uptake
[7] = target: T4, Sodium-dependent serotonin transporter (Homo sapiens, UniProt P31645); assay: Inhibition of [3H]5-HT uptake
[8] = target: T4, Sodium-dependent serotonin transporter; assay: Displacement of [125I]RTI-55 from SERT
[9] = target: T2, Monoamine transporters; serotonin & dopamine (Homo sapiens); assay: Selectivity for SERT over DAT; format: protein assay
[10] = target: T1, Sodium-dependent noradrenaline transporter; assay: Displacement of [3H]nisoxetine from NET

T3 sequence (Q01959 whole entry): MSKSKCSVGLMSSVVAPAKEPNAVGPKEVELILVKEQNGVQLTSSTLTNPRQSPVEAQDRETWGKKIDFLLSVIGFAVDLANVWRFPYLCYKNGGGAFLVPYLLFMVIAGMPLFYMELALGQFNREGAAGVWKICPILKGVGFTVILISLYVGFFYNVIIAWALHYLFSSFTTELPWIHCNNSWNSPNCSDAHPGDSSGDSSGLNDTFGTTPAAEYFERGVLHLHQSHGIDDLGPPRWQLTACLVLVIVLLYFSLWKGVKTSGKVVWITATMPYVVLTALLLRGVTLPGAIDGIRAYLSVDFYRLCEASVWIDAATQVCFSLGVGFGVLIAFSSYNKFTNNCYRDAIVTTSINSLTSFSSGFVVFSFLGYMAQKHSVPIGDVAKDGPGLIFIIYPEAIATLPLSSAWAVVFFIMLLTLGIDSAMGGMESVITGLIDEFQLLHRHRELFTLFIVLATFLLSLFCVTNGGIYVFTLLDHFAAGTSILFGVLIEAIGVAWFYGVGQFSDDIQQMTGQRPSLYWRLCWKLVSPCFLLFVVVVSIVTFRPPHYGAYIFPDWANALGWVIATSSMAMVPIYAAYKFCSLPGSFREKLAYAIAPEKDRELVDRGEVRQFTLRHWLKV
T1 sequence (P23975 whole entry): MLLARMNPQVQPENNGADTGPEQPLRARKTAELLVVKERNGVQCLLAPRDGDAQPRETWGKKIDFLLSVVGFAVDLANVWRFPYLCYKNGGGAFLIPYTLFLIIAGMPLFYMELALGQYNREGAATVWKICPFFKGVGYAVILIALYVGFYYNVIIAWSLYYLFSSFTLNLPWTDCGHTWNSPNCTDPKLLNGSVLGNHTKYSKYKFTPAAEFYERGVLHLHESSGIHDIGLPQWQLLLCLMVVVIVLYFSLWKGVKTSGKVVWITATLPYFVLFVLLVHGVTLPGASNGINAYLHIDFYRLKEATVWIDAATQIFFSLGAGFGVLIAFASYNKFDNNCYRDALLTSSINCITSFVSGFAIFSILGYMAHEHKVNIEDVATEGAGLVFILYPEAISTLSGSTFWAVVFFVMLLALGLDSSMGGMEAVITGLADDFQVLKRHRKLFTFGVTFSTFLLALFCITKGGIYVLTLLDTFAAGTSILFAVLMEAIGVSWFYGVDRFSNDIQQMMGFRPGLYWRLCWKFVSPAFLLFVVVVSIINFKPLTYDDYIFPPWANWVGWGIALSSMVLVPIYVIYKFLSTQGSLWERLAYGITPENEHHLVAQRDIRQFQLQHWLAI
Chain of Monoamine transporters; Norepinephrine & dopamine (Homo sapiens) (P23975 whole entry, looked up): as the sequence (P23975 whole entry) above
Chain of Monoamine transporters; Norepinephrine & dopamine (Homo sapiens) (Q01959 whole entry, looked up): as the sequence (Q01959 whole entry) above
T2 sequence (P31645 whole entry, looked up): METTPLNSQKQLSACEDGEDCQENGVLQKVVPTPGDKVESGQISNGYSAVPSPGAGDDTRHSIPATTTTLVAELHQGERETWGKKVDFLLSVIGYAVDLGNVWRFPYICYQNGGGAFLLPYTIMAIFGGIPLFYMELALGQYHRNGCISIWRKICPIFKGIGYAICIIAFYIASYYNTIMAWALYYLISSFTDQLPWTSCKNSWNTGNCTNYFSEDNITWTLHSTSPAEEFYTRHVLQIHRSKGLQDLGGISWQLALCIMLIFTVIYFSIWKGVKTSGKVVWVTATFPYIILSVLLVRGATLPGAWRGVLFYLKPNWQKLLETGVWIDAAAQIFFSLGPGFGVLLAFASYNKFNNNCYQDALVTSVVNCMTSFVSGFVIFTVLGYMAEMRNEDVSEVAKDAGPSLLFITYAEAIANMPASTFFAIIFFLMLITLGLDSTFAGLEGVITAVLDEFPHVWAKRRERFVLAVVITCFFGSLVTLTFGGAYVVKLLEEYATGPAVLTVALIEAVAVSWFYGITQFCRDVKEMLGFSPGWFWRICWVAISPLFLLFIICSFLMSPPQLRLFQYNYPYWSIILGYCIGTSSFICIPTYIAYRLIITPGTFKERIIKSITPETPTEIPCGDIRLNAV
T2 sequence (Q01959 whole entry, looked up): as the sequence (Q01959 whole entry) above
T4 sequence (P31645 whole entry): as the sequence (P31645 whole entry, looked up) above

SMILES	Ki [1]	Ratio Ki [2]	Ratio Ki [3]	Ratio Ki [4]	Ki [5]	Ki [6]	Ki [7]	Ki [8]	Ratio Ki [9]	Ki [10]
O[C@H](CCc1ccccc1)CN1CCC(CCOC(c2ccc(F)cc2)c2ccc(F)cc2)CC1	79 nM	56	14	215	2.1 nM	1.4 nM	19 nM	13 nM	6	460 nM
O[C@@H](CCc1ccccc1)CN1CCC(CCOC(c2ccc(F)cc2)c2ccc(F)cc2)CC1	–	–	–	457	1.6 nM	–	–	38 nM	24	736 nM
O[C@H](Cc1ccccc1)CN1CCC(CCOC(c2ccccc2)c2ccccc2)CC1	–	–	–	114	6.9 nM	–	–	286 nM	42	785 nM
C[C@H](Cc1ccccc1)CN1CCC(CCOC(c2ccc(F)cc2)c2ccc(F)cc2)CC1	–	–	–	118	0.9 nM	–	–	53 nM	61	103 nM
Fc1ccc(C(OCCC2CCN(C[C@@H]3C[C@H]3c3ccccc3)CC2)c2ccc(F)cc2)cc1	–	–	–	1890	0.5 nM	–	–	16 nM	32	947 nM
C[C@@H](Cc1ccccc1)CN1CCC(CCOC(c2ccc(F)cc2)c2ccc(F)cc2)CC1	160 nM	42	33	47	8 nM	3.8 nM	124 nM	100 nM	13	380 nM
Fc1ccc(C(OCCC2CCN(C[C@H]3C[C@@H]3c3ccccc3)CC2)c2ccc(F)cc2)cc1	–	–	–	256	1.4 nM	–	–	136 nM	97	359 nM
O[C@@H](Cc1ccccc1)CN1CCC(CCOC(c2ccc(F)cc2)c2ccc(F)cc2)CC1	–	–	–	902	0.4 nM	–	–	82 nM	205	361 nM
O[C@@H](CCN1CCC(CCOC(c2ccc(F)cc2)c2ccc(F)cc2)CC1)c1ccccc1	–	–	–	515	0.9 nM	–	–	22 nM	26	440 nM
O[C@H](Cc1ccccc1)CN1CCC(CCOC(c2ccc(F)cc2)c2ccc(F)cc2)CC1	143 nM	84	24	240	5.1 nM	1.7 nM	41 nM	91 nM	18	1220 nM
C[C@H](CCN1CCC(CCOC(c2ccc(F)cc2)c2ccc(F)cc2)CC1)c1ccccc1	–	–	–	253	2.2 nM	–	–	58 nM	26	560 nM
O[C@H](CCN1CCC(CCOC(c2ccc(F)cc2)c2ccc(F)cc2)CC1)c1ccccc1	–	–	–	394	0.8 nM	–	–	43 nM	51	330 nM
Fc1ccc(C(OCCC2CCN(CC3=Cc4ccccc4CC3)CC2)c2ccc(F)cc2)cc1	–	–	–	40	1.1 nM	–	–	127 nM	118	43 nM
O[C@H](CCN1CCC(CCOC(c2ccccc2)c2ccccc2)CC1)c1ccccc1	–	–	–	> 3200	1.8 nM	–	–	280 nM	158	> 5600 nM
N[C@@H](Cc1ccccc1)CN1CCC(CCOC(c2ccc(F)cc2)c2ccc(F)cc2)CC1	338 nM	26	18	135	6.3 nM	13 nM	228 nM	76 nM	12	851 nM
C[C@@H](CCN1CCC(CCOC(c2ccc(F)cc2)c2ccc(F)cc2)CC1)c1ccccc1	40 nM	19	36	259	1.3 nM	2.1 nM	75 nM	30 nM	22	340 nM
O[C@@H](CCN1CCC(CCOC(c2ccccc2)c2ccccc2)CC1)c1ccccc1	–	–	–	101	2.1 nM	–	–	230 nM	107	210 nM
N[C@H](Cc1ccccc1)CN1CCC(CCOC(c2ccc(F)cc2)c2ccc(F)cc2)CC1	402 nM	24	13	78	12 nM	17 nM	229 nM	68 nM	6	941 nM
O[C@@H](Cc1ccccc1)CN1CCC(CCOC(c2ccccc2)c2ccccc2)CC1	–	–	–	359	1.4 nM	–	–	450 nM	332	485 nM

From ChEMBL document CHEMBL1138151, “Design and synthesis of promiscuous high-affinity monoamine transporter ligands: unraveling transporter selectivity” (J Med Chem, 2006)
